Assays:
[1] = DPPH radical scavenger assay; details: for EC50 / DPPH Radical Scavenging 100 µM % of MeOH: 30 min; for EC50: MeOH, read-out: DPPH Radical Scavenging EC50; for DPPH Radical Scavenging 100 µM % of MeOH: compound 100 µM, absorbance 520 nm
Description: The DPPH radical scavenging activities of the compounds were tested as described.
The compounds were dissolved in MeOH, and the solutions (120 µL) were dispensed into wells of a 96-well microplate. In all, 30 µL of the DPPH (Sigma-Aldrich, Steinheim, Germany) solution in MeOH (7.5 × 10^−3 M) was added to each well. The concentrations of the test compounds in the mixtures were 10 and 100 µM. The mixtures were shaken and left to stand for 30 min, and the absorbance of the resulting solutions was measured at 520 nm with a microplate reader MultiscanFC (ThermoScientific, Waltham, MA, USA). The concentration scavenging 50% of the DPPH radical (EC50) was calculated for each investigated compound.

MTT cytotoxicity assay = type: cell-based, murine; details: mouse, Neuro-2a neuroblastoma cells; Neuro-2a cells, MTT
Description: (§1) The murine neuroblastoma cell line Neuro-2a was purchased from ATCC.
(§2) Neuro-2a cells were cultured in DMEM medium containing 10% fetal bovine serum (Biolot, St. Petersburg, Russia) and 1% penicillin/streptomycin (Biolot, St. Petersburg, Russia). Cells were incubated at 37 °C in a humidified atmosphere containing 5% (v/v) CO2 [71].
The in vitro cytotoxicity of the individual substances was evaluated using an MTT (3-(4,5-dimethylthiazol-2-yl)-2,5-diphenyltetrazolium bromide) assay, which was performed according to the manufacturer’s instructions (Sigma-Aldrich, USA). Absorbance of the converted formazan was measured using a Multiskan FC plate photometer (Thermo Scientific, Waltham, MA, USA) at λ = 570 nm. The results were presented as percent of control data, and concentration of cell viability inhibition on 50% (IC50) was calculated.

[2] = test system: Neuro-2a cells treated with 6-OHDA; assay: 6-OHDA-induced PD cell model, cell viability (MTT); type: cell-based, murine; details: compounds 6-12 at 1 µM; 6-OHDA 50 µM
Description: as §1, §2
(§3) The neuroblastoma Neuro-2a line cells (1 × 10^4 cells/well) were treated with the test compounds at concentrations of 1 and/or 10 µM for 1 h, and then the neurotoxins were added to the neuroblastoma cell suspensions. Rotenone (Sigma-Aldrich, USA) was used at the concentration of 10 µM. Paraquat (Sigma-Aldrich, USA) was used at 500 µM. 6-Hydroxydopamine (Sigma-Aldrich, USA) was used at 50 µM. Cells incubated without neurotoxins and the test compounds and cells incubated with neurotoxins only were used as positive and negative controls, respectively. After 24 h of incubation, the cell viabilities were measured using the MTT method. The results are presented as the percent of positive control data.

[3] = test system: MCF-7, HepG-2, NCI-H460 and SF-268; set-up: method as in PMID 18444265, PMID 28481313, PMID 27128202; details: four tumor cell lines and some others; cited from earlier work
[4] = test system: 6-OHDA-treated Neuro-2a cells; assay: ROS level in 6-OHDA-treated cells (H2DCFDA); type: cell-based, murine
Description: as §1, §2
(§4) The cells (1 × 10^4 cells/well of a 96-well plate) were incubated with compound solutions (10 µM) during 1 h. Then, 6-OHDA/PQ/rotenone were added to cell suspension to resulting concentration of 50 µM, 500 µM and 10 µM respectively for incubation during 1 h. Cells incubated without neurotoxins and compounds and with neurotoxins alone were used as positive and negative controls, respectively. The 20 µL of 2,7-dichlorodihydrofluorescein diacetate solution (H2DCFDA, Molecular Probes, Eugene, OR, USA) was added to each well (10 µM, final concentration) and the plate was incubated for an additional 10 min at 37 °C. The intensity of dichlorofluorescein fluorescence was measured with PHERAstar FS plate reader (BMG Labtech, Ortenberg, Germany) at λex = 485 nm and λem = 518 nm. The data were processed by MARS Data Analysis v. 3.01R2 (BMG Labtech, Germany). The results were presented as the percent of positive control data.

[5] = test system: rotenone-treated Neuro-2a cells; assay: ROS level in rotenone-treated cells (H2DCFDA); type: cell-based, murine
Description: as §1, §2, §4

[6] = test system: PQ-treated Neuro-2a cells; assay: ROS level in PQ-treated cells (H2DCFDA); type: cell-based, murine
Description: as §1, §2
as §4, with “The cells (1 × 10^4 cells/well of a 96-well plate) were incubated with compound solutions (10 µM) during 1 h.” left out

[7] = test system: Escherichia coli and Bacillus subtilis; set-up: method as in doi:10.1007/s10600-016-1745-x; details: cited from earlier work
[8] = set-up: method as in doi:10.1007/BF01922472, doi:10.1016/j.tet.2016.09.008; details: cited from earlier work
[9] = set-up: method as in doi:10.1007/BF03175531; details: cited from earlier work
[10] = test system: PQ-treated Neuro-2a cells; assay: Paraquat-induced PD cell model, cell viability (MTT); type: cell-based, murine
Description: as §1, §2, §3

[11] = no exact data published; cited from earlier work
[12] = test system: rotenone-treated Neuro-2a cells; assay: Rotenone-induced PD cell model, cell viability (MTT); type: cell-based, murine
Description: as §1, §2, §3

Nrf2-ARE pathway = test system: Nrf2-ARE pathway; set-up: method as in PMID 27450949; details: cited from earlier work
[13] = compounds 1-5, compound 10 µM 1 h, 6-OHDA 50 µM 1 h
[14] = compounds 1-5, compound 10 µM 1 h, rotenone 10 µM 1 h
[15] = compounds 1-5, compound 10 µM 1 h, PQ 500 µM 1 h

Q: For `C=CC(C)(C)c1[nH]c2ccccc2c1C1=C(OC)C(=O)C(c2c[nH]c3ccccc23)=C(OC)C1=O` [Compound 9, asterriquinone C1], which EC50 [1] is on record?
A: The EC50 was > 100 µM.

Q: And the “DPPH Radical Scavenging 100 µM % of MeOH” value [1]?
A: Its value is 82.4 ± 1.7 % of MeOH.

Q: And the IC50 (MTT cytotoxicity assay)?
A: The IC50 was 42.3 ± 1.45 µM.

Q: With `C=CC(C)(C)c1[nH]c2ccccc2c1C1=C(OC)C(=O)C(c2cn(C(C)(C)C=C)c3ccccc23)=C(OC)C1=O` [Compound 7, Asterriquinone A3] as the compound, how does the EC50 [1] read?
A: Its EC50 is > 100 µM.

Q: And the “DPPH Radical Scavenging 100 µM % of MeOH” value [1]?
A: Its value is 88.9 ± 1.6 % of MeOH.

Q: And the IC50 (MTT cytotoxicity assay)?
A: The IC50 was > 100 µM.

Q: And the “cytoprotective activity in 6-OHDA-induced PD cell model” value [2]?
A: Its value is “weak cytoprotective activity”.

Q: With `COC1=C(c2c[nH]c3ccccc23)C(=O)C(OC)=C(c2c[nH]c3c(CC=C(C)C)cccc23)C1=O` [Compound 10, asterriquinone C2] as the compound, how does the EC50 [1] read?
A: The EC50 was > 100 µM.

Q: And the “DPPH Radical Scavenging 100 µM % of MeOH” value [1]?
A: The value was 91.3 ± 1.1 % of MeOH.

Q: And the IC50 (MTT cytotoxicity assay)?
A: The IC50 was > 100 µM.

Q: Which EC50 [1] does the source give for `O=C1C[C@H](O)[C@@H](O)c2cc(O)cc(O)c21` [Compound 1, (3S,4S)-4-hydroxyscytalone] here?
A: Its EC50 is > 100 µM.

Q: And the “DPPH Radical Scavenging 100 µM % of MeOH” value [1]?
A: Its value is 83.4 ± 1.2 % of MeOH.

Q: What about the “cytotoxicity against tumor cell lines” value [3] of the same compound?
A: Its value is “no activity was shown”.

Q: And the IC50 (MTT cytotoxicity assay)?
A: The IC50 was > 100 µM.

Q: What about the “influence on ROS level in 6-OHDA-treated cells” value [4, 13] of the same compound?
A: The value was “decreased a ROS level”.

Q: And the “influence on ROS level in rotenone-treated cells” value [5, 14]?
A: The value was “decreased a ROS level”.

Q: What about the “influence on ROS level in PQ-treated cells” value [6, 15] of the same compound?
A: Its value is “decreased a ROS level”.

Q: What about the antimicrobial activity [7] of the same compound?
A: Its antimicrobial activity is “weak antimicrobial activity”.

Q: And the phytotoxic activity [8]?
A: Its phytotoxic activity is “phytotoxic”.

Q: And the antinematodal activity [9]?
A: Its antinematodal activity is “antinematodal agents”.

Q: For `COc1cc(O)cc2c1C(=O)c1c(O)cc(C)cc1C2=O` [Compound 12, questin], which EC50 [1] is on record?
A: Its EC50 is > 100 µM.

Q: And the “radical scavenging activity in cell-free assay” value ([1]; DPPH, up to 100 µM)?
A: Its value is “did not show any significant DPPH radical scavenging”.

Q: And the “DPPH Radical Scavenging 100 µM % of MeOH” value [1]?
A: The value was 87.7 ± 2.4 % of MeOH.

Q: And the “cytoprotective activity in PQ-induced PD cell model” value ([10]; compounds 6-12 at 1 µM, paraquat 500 µM)?
A: Its value is “inactive”.

Q: What about the IC50 (MTT cytotoxicity assay) of the same compound?
A: Its IC50 is > 100 µM.

Q: What about the “influence on ROS level in 6-OHDA-treated cells” value ([4]; compounds 6-12, 1 µM (method: 10 µM), 6-OHDA 50 µM) of the same compound?
A: The value was “significant in vitro anti-ROS activity”.

Q: And the DPPH-radical scavenging activity [11]?
A: The DPPH-radical scavenging activity was “DPPH-radical scavenging activity has been reported”.

Q: And the “cytoprotective activity in 6-OHDA-induced PD cell model” value [2]?
A: The value was “inactive”.

Q: And the “cytoprotective activity in rotenone-induced PD cell model” value ([12]; compounds 6-12 at 1 µM, rotenone 10 µM)?
A: Its value is “moderate cytoprotective activity”.

Q: What about the “influence on ROS level in rotenone-treated cells” value ([5]; compounds 6-12, 1 µM (method: 10 µM), rotenone 10 µM) of the same compound?
A: Its value is “significant in vitro anti-ROS activity”.

Q: What about the “influence on ROS level in PQ-treated cells” value ([6]; compounds 6-12, 1 µM (method: 10 µM), PQ 500 µM) of the same compound?
A: Its value is “significant in vitro anti-ROS activity”.

Q: With `NCCc1cc(O)c(O)cc1O` [Compound 6-OHDA, 6-hydroxydopamine, reference compound] as the compound, how does the “increase of intracellular ROS level by neurotoxin” value ([4]; 6-OHDA 50 µM alone, 1 h) read?
A: The value was 66%.

Q: Which EC50 [1] does the source give for `CC1CC(O)CC2(Cc3cc(O)cc(O)c3C(=O)O2)O1` (centres unmarked) [Compound 3, demethylcitreoviranol] here?
A: Its EC50 is > 100 µM.

Q: And the “DPPH Radical Scavenging 100 µM % of MeOH” value [1]?
A: Its value is 91.2 ± 1.8 % of MeOH.

Q: What about the IC50 (MTT cytotoxicity assay) of the same compound?
A: Its IC50 is > 100 µM.

Q: And the “inducing of the Nrf2-ARE pathway” value (Nrf2-ARE pathway)?
A: The value was “weak inducing of the Nrf2-ARE pathway”.

Q: What about the “influence on ROS level in rotenone-treated cells” value [5, 14] of the same compound?
A: The value was “effective against ROS level enhancing”.

Q: What about the “influence on ROS level in PQ-treated cells” value [6, 15] of the same compound?
A: The value was “effective against ROS level enhancing”.

Q: Which results are given for `O=C1C[C@H](O)[C@@H](O)c2cccc(O)c21` [Compound 2, (3S,4S)-4-hydroxy-6-dehydroxyscytalone]?
A: EC50 [1]: > 100 µM; DPPH Radical Scavenging 100 µM % of MeOH [1]: 84.8 ± 3.2 % of MeOH; IC50 (MTT cytotoxicity assay): > 100 µM; influence on ROS level in 6-OHDA-treated cells [4, 13]: decreased a ROS level; influence on ROS level in rotenone-treated cells [5, 14]: decreased a ROS level; influence on ROS level in PQ-treated cells [6, 15]: decreased a ROS level; phytotoxic activity [8]: phytotoxic; antinematodal activity [9]: antinematodal agents

Q: Which results are given for `C[n+]1ccc(-c2cc[n+](C)cc2)cc1` [PQ, paraquat, reference compound]?
A: decrease of Neuro-2a cell viability by neurotoxin ([10]; paraquat 500 µM alone, 24 h): 44%; increase of intracellular ROS level by neurotoxin ([6]; PQ 500 µM alone, 1 h): 48%

Q: What does the source list for `C=CC(C)(C)c1[nH]c2ccccc2c1C1=C(OC)C(=O)C(c2c(C(C)(C)C=C)[nH]c3ccccc23)=C(OC)C1=O` [Compound 8, asterriquinone B4]?
A: EC50 [1]: > 100 µM; DPPH Radical Scavenging 100 µM % of MeOH [1]: 89.5 ± 0.9 % of MeOH; IC50 (MTT cytotoxicity assay): 91.5 ± 1.87 µM

Q: Which EC50 [1] does the source give for `COc1c2c(c(OC)c(O)c1-c1c[nH]c3ccccc13)C1(O)c3ccccc3NC1O2` (centres unmarked) [Compound 6, 3-(1H-indol-3-yl)-1,4-dimethoxy-5a,6-dihydro-10bH-benzofuro [2,3-b]indole-2,10b-diol] here?
A: Its EC50 is > 100 µM.

Q: What about the “DPPH Radical Scavenging 100 µM % of MeOH” value [1] of the same compound?
A: Its value is 67.3 ± 3.9 % of MeOH.

Q: What about the IC50 (MTT cytotoxicity assay) of the same compound?
A: The IC50 was > 100 µM.

Q: With `C=C(C)[C@H]1Cc2c(ccc3c2O[C@@H]2COc4cc(OC)c(OC)cc4[C@@H]2C3=O)O1` [Rotenone, reference compound] as the compound, how does the “decrease of Neuro-2a cell viability by neurotoxin” value ([12]; rotenone 10 µM alone, 24 h) read?
A: The value was 48%.

Q: And the “increase of intracellular ROS level by neurotoxin” value ([5]; rotenone 10 µM alone, 1 h)?
A: The value was 79%.

Q: For `COC1=C(c2c[nH]c3ccccc23)C(=O)C(OC)=C(c2c[nH]c3ccccc23)C1=O` [Compound 11, asterriquinone D], which EC50 [1] is on record?
A: Its EC50 is > 100 µM.

Q: What about the “DPPH Radical Scavenging 100 µM % of MeOH” value [1] of the same compound?
A: Its value is 85.6 ± 1.3 % of MeOH.

Q: And the IC50 (MTT cytotoxicity assay)?
A: The IC50 was > 100 µM.

From PMC7760690, “Neuroprotective Metabolites from Vietnamese Marine Derived Fungi of Aspergillus and Penicillium Genera” (Marine Drugs, 2020)
